PubChem BioAssay (NCI)
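Values below derive from 48-hour exposures of cells grown in 96-well plates, with endpoints linearly interpolated between the two concentrations bracketing the appropriate inhibition level. Definition used: TGI = concentration required for complete inhibition of growth.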

Legend:
Experiment in all cases: NCI tumour cell line growth inhibition, 48 h
COLO 205 colon = tested on: COLO 205 colon
SNB-75 CNS = tested on: SNB-75 CNS
SNB-19 CNS = tested on: SNB-19 CNS
DMS 114 small cell lung = tested on: DMS 114 small cell lung
HOP-92 NSCLC = tested on: HOP-92 NSCLC
SF-268 CNS = tested on: SF-268 CNS
SK-MEL-2 melanoma = tested on: SK-MEL-2 melanoma
SNB-78 CNS = tested on: SNB-78 CNS
ACHN renal = tested on: ACHN renal
OVCAR-3 ovarian = tested on: OVCAR-3 ovarian
RXF 393 renal = tested on: RXF 393 renal
DMS 273 small cell lung = tested on: DMS 273 small cell lung
OVCAR-4 ovarian = tested on: OVCAR-4 ovarian
HOP-18 NSCLC = tested on: HOP-18 NSCLC
SF-295 CNS = tested on: SF-295 CNS
EKVX NSCLC = tested on: EKVX NSCLC
U251 CNS = tested on: U251 CNS
TK-10 renal = tested on: TK-10 renal
UACC-62 melanoma = tested on: UACC-62 melanoma
A498 renal = tested on: A498 renal
OVCAR-8 ovarian = tested on: OVCAR-8 ovarian
HOP-62 NSCLC = tested on: HOP-62 NSCLC
HCC-2998 colon = tested on: HCC-2998 colon
HCT-15 colon = tested on: HCT-15 colon
NCI-H23 lung = tested on: NCI-H23 lung
DLD-1 colon = tested on: DLD-1 colon
MALME-3M melanoma = tested on: MALME-3M melanoma
KM20L2 colon = tested on: KM20L2 colon
LOX IMVI melanoma = tested on: LOX IMVI melanoma
SK-OV-3 ovarian = tested on: SK-OV-3 ovarian
M19-MEL melanoma = tested on: M19-MEL melanoma
UACC-257 melanoma = tested on: UACC-257 melanoma
KM12 colon = tested on: KM12 colon
786-0 renal = tested on: 786-0 renal
RPMI-8226 leukemia = tested on: RPMI-8226 leukemia
CAKI-1 renal = tested on: CAKI-1 renal
M14 melanoma = tested on: M14 melanoma
NCI-H460 lung = tested on: NCI-H460 lung
LXFL 529 NSCLC = tested on: LXFL 529 NSCLC
SW-620 colon = tested on: SW-620 colon
UO-31 renal = tested on: UO-31 renal
SN12C renal = tested on: SN12C renal
SF-539 CNS = tested on: SF-539 CNS
HCT-116 colon = tested on: HCT-116 colon
NCI-H226 lung = tested on: NCI-H226 lung
SK-MEL-28 melanoma = tested on: SK-MEL-28 melanoma
IGROV1 ovarian = tested on: IGROV1 ovarian
XF 498 CNS = tested on: XF 498 CNS
A549 NSCLC = tested on: A549 NSCLC
OVCAR-5 ovarian = tested on: OVCAR-5 ovarian
HT29 colon = tested on: HT29 colon
SK-MEL-5 melanoma = tested on: SK-MEL-5 melanoma
K-562 leukemia = tested on: K-562 leukemia
MOLT-4 leukemia = tested on: MOLT-4 leukemia
NCI-H522 lung = tested on: NCI-H522 lung
CCRF-CEM leukemia = tested on: CCRF-CEM leukemia

`CCOc1ccccc1N1C(=O)C(=O)C(c2nc3ccccc3s2)C(=O)C1=O` was tested, and the TGI (COLO 205 colon) was greater than 100 µM, the TGI (SNB-75 CNS) was greater than 100 µM and the TGI (SNB-19 CNS) was greater than 100 µM. The TGI (DMS 114 small cell lung) was greater than 100 µM, the TGI (HOP-92 NSCLC) was greater than 100 µM and the TGI (SF-268 CNS) was greater than 100 µM. It also gave a TGI (SK-MEL-2 melanoma) greater than 100 µM, a TGI (SNB-78 CNS) greater than 100 µM and a TGI (ACHN renal) of 54 µM. It also gave a TGI (OVCAR-3 ovarian) of 44.2 µM, a TGI (RXF 393 renal) greater than 100 µM and a TGI (DMS 273 small cell lung) greater than 100 µM. For the same molecule, the TGI (OVCAR-4 ovarian) was 17.8 µM, the TGI (HOP-18 NSCLC) was 69.8 µM and the TGI (SF-295 CNS) was greater than 100 µM. It also gave a TGI (EKVX NSCLC) greater than 100 µM, a TGI (U251 CNS) greater than 100 µM and a TGI (TK-10 renal) greater than 100 µM. The TGI (UACC-62 melanoma) was greater than 100 µM, the TGI (A498 renal) was 39 µM and the TGI (OVCAR-8 ovarian) was greater than 100 µM. For the same molecule, the TGI (HOP-62 NSCLC) was greater than 100 µM, the TGI (HCC-2998 colon) was greater than 100 µM and the TGI (HCT-15 colon) was greater than 100 µM. It also gave a TGI (NCI-H23 lung) greater than 100 µM, a TGI (DLD-1 colon) greater than 100 µM and a TGI (MALME-3M melanoma) greater than 100 µM. It also gave a TGI (KM20L2 colon) greater than 100 µM, a TGI (LOX IMVI melanoma) greater than 100 µM and a TGI (SK-OV-3 ovarian) greater than 100 µM. For the same molecule, the TGI (M19-MEL melanoma) was greater than 100 µM, the TGI (UACC-257 melanoma) was greater than 100 µM and the TGI (KM12 colon) was greater than 100 µM. For the same molecule, the TGI (786-0 renal) was 20.8 µM, the TGI (RPMI-8226 leukemia) was greater than 100 µM and the TGI (CAKI-1 renal) was greater than 100 µM. The TGI (M14 melanoma) was greater than 100 µM, the TGI (NCI-H460 lung) was greater than 100 µM and the TGI (LXFL 529 NSCLC) was greater than 100 µM. The TGI (SW-620 colon) was greater than 100 µM, the TGI (UO-31 renal) was greater than 100 µM and the TGI (SN12C renal) was greater than 100 µM. It also gave a TGI (SF-539 CNS) greater than 100 µM, a TGI (HCT-116 colon) greater than 100 µM and a TGI (NCI-H226 lung) greater than 100 µM. The TGI (SK-MEL-28 melanoma) was greater than 100 µM, the TGI (IGROV1 ovarian) was greater than 100 µM and the TGI (XF 498 CNS) was greater than 100 µM. It also gave a TGI (A549 NSCLC) greater than 100 µM, a TGI (OVCAR-5 ovarian) greater than 100 µM and a TGI (HT29 colon) greater than 100 µM.
For `Cc1cc(C)nc(NS(=O)(=O)c2ccc(NC(=O)c3cccc4c(Nc5ccc(S(=O)(=O)Nc6nc(C)cc(C)n6)cc5)c5ccc(Cl)cc5nc34)cc2)n1`, the TGI (COLO 205 colon) was greater than 100 µM, the TGI (SK-MEL-5 melanoma) was 42.7 µM and the TGI (SNB-75 CNS) was 67.9 µM. It also gave a TGI (SNB-19 CNS) greater than 100 µM, a TGI (DMS 114 small cell lung) of 79.8 µM and a TGI (HOP-92 NSCLC) of 62.6 µM. The TGI (SF-268 CNS) was greater than 100 µM, the TGI (SK-MEL-2 melanoma) was greater than 100 µM and the TGI (SNB-78 CNS) was greater than 100 µM. For the same molecule, the TGI (ACHN renal) was greater than 100 µM, the TGI (OVCAR-3 ovarian) was 58.3 µM and the TGI (RXF 393 renal) was greater than 100 µM. It also gave a TGI (DMS 273 small cell lung) greater than 100 µM, a TGI (OVCAR-4 ovarian) greater than 100 µM and a TGI (HOP-18 NSCLC) greater than 100 µM. It also gave a TGI (SF-295 CNS) greater than 100 µM, a TGI (EKVX NSCLC) greater than 100 µM and a TGI (U251 CNS) greater than 100 µM. For the same molecule, the TGI (TK-10 renal) was greater than 100 µM, the TGI (UACC-62 melanoma) was 56.2 µM and the TGI (A498 renal) was greater than 100 µM. It also gave a TGI (K-562 leukemia) of 88.6 µM, a TGI (OVCAR-8 ovarian) greater than 100 µM and a TGI (HOP-62 NSCLC) of 71.9 µM. The TGI (HCC-2998 colon) was greater than 100 µM, the TGI (HCT-15 colon) was greater than 100 µM and the TGI (NCI-H23 lung) was greater than 100 µM. For the same molecule, the TGI (DLD-1 colon) was greater than 100 µM, the TGI (MOLT-4 leukemia) was greater than 100 µM and the TGI (MALME-3M melanoma) was 50.3 µM. The TGI (KM20L2 colon) was greater than 100 µM, the TGI (LOX IMVI melanoma) was greater than 100 µM and the TGI (SK-OV-3 ovarian) was 77.1 µM. The TGI (M19-MEL melanoma) was greater than 100 µM, the TGI (UACC-257 melanoma) was 62.9 µM and the TGI (KM12 colon) was greater than 100 µM. It also gave a TGI (786-0 renal) greater than 100 µM, a TGI (RPMI-8226 leukemia) of 91.9 µM and a TGI (CAKI-1 renal) of 77.1 µM. The TGI (NCI-H522 lung) was 54.7 µM, the TGI (M14 melanoma) was greater than 100 µM and the TGI (NCI-H460 lung) was greater than 100 µM. The TGI (LXFL 529 NSCLC) was greater than 100 µM, the TGI (SW-620 colon) was greater than 100 µM and the TGI (UO-31 renal) was 82 µM. The TGI (SN12C renal) was greater than 100 µM, the TGI (SF-539 CNS) was greater than 100 µM and the TGI (HCT-116 colon) was greater than 100 µM. The TGI (SK-MEL-28 melanoma) was greater than 100 µM, the TGI (IGROV1 ovarian) was greater than 100 µM and the TGI (CCRF-CEM leukemia) was 79.8 µM. For the same molecule, the TGI (XF 498 CNS) was 59.8 µM, the TGI (A549 NSCLC) was greater than 100 µM and the TGI (OVCAR-5 ovarian) was greater than 100 µM. For the same molecule, the TGI (HT29 colon) was greater than 100 µM.
